Data set [1] concerns the target Amyloid-beta precursor protein (Homo sapiens) (UniProt P05067). The experiment in a line: Photo-degradation of Amyloid beta (1 to 42) (unknown origin) assessed as disruption of Co2 induced aggregation at 66.7 uM irradiated with UVA-LED for 1 hr by immunoblotting analysis.
The target is the same in data set [2]. The experiment in a line: Photo-degradation of Amyloid beta (1 to 42) (unknown origin) assessed as disruption of Co2 induced aggregation at 66.7 uM irradiated with UVA-LED measured after 5 mins by immunoblotting analysis. (In general: Immunoblotting shows a protein as a band on a membrane.)
In data set [3] the test system is HeLa. The experiment in a line: Dark toxicity in human HeLa cells assessed as reduction in cell viability. The data set is classed as cell-based.
The test system of data set [4] is HeLa. The experiment in a line: Phototoxicity in human HeLa cells assessed as reduction in cell viability irradiated with UVA-LED measured after 60 mins. The data set is classed as cell-based. Particulars: 1 h.

The structures appear in SMILES notation. Calls of active or inactive are those of the source. The rule behind the calls is not given here.

Chain of Amyloid-beta precursor protein (Homo sapiens) (P05067 whole entry): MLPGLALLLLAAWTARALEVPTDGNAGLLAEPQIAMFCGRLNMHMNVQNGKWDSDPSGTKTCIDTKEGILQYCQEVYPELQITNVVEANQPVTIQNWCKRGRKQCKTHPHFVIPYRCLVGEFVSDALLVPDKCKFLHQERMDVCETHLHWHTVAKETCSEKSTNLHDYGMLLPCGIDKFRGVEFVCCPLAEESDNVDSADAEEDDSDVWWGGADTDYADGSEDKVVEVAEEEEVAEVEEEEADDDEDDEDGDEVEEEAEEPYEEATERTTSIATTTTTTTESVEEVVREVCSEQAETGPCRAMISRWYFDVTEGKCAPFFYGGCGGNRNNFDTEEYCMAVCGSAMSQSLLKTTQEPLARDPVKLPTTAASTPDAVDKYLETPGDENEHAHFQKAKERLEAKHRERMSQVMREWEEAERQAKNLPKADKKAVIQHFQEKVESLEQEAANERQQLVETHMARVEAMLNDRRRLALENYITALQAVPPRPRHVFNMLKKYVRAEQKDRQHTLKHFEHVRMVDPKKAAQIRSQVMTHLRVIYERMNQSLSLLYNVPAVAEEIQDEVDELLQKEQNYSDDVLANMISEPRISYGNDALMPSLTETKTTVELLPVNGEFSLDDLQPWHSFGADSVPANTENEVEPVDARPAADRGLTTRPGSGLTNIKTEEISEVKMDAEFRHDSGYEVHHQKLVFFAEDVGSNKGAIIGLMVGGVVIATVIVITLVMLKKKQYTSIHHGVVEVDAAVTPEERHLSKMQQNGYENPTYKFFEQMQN

As for `CC[n+]1ccc(-c2ccc(-c3nc4ccccc4s3)cc2)cc1.[Br-]`, the inhibition result in data set [1] and in data set [2] was “Active” each time. For the same compound, the Activity entry is recorded as “Non-Toxic” in the data set with HeLa [3] and “Toxic” with HeLa [4].

The values above are taken from ChEMBL document CHEMBL4823306, “Synthesis of D-π-A type benzothiazole-pyridinium salt composite and its application as photo-degradation agent for amyloid fibrils” (Bioorg Med Chem Lett, 2021).
